Some test systems named below: K562; MOLT-4; KM12; SK-MEL-5; MDA-N; RXF 393; RPMI-8226; Hs-578T; DU-145; SF-268; A498; SW-620; TK-10; MCF7; SK-MEL-2; CCRF-CEM; PC-3; NCI-H460; SK-OV-3.
Holding throughout (experiment): NCI-60 cell line screen, 48 h

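Cells were grown in 96-well plates and exposed to each compound for 48 hours at five concentrations; endpoints were interpolated linearly between bracketing concentrations, or set to the highest concentration if not reached. GI50 is the concentration that inhibits growth by half.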 Activity calls are given as the source filed them. No stated cut-off is given here; in the data, active = GI50 up to about 1.1 µM and inactive = higher.

For `c1cc2c(cc1NC1=NCCO1)CCCC2`, the GI50 in the test on K562 is 2.45 µM (inactive); in the test on MOLT-4 it was 2.65 µM (inactive); in the test with KM12, 2.77 µM (inactive); with SK-MEL-5, 3.05 µM (inactive); in the test on MDA-N, 1.41 µM (inactive); with RXF 393 it was 2.67 µM (inactive). For the same molecule, the GI50 was 2.92 µM (inactive) in the test with RPMI-8226; 4.6 µM (inactive) in the test with Hs-578T; 5.08 µM (inactive) in the test with DU-145; 5.56 µM (inactive) in the test on SF-268; 3.76 µM (inactive) with A498; 9.73 µM (inactive) with SW-620. The GI50 is 10.6 µM (inactive) with TK-10; 0.619 µM (active) in the test on MCF7; 2.97 µM (inactive) with SK-MEL-2; 2.72 µM (inactive) in the test on CCRF-CEM; 3.01 µM (inactive) in the test on PC-3; 3.3 µM (inactive) in the test on NCI-H460. Moreover, the GI50 in the test with SK-OV-3 was 4.38 µM (inactive).

`COC(=O)CC1C(C)(C)C(=O)C2CC3=C4CC(=O)OC(c5ccoc5)C4(C)CCC3C1(C)C2=O` (stereo unspecified): the GI50 in the test on K562, with MOLT-4, with KM12, in the test with SK-MEL-5, with MDA-N and in the test on RXF 393 was > 100 µM (inactive) in each case. Besides, the GI50 with RPMI-8226, in the test on Hs-578T, in the test on DU-145, in the test with SF-268, in the test with A498 and with SW-620 was > 100 µM (inactive) throughout. The GI50 in the test with TK-10, in the test with MCF7, in the test on SK-MEL-2, with CCRF-CEM, in the test on PC-3 and in the test on NCI-H460 was > 100 µM (inactive) each time. The GI50 in the test with SK-OV-3 was > 100 µM (inactive).

As to `C/C=C/C=C/C1=NN(c2cccc(S(=O)(=O)O)c2)C2(C1)C(Cl)C(=O)N2c1nc2ccccc2s1` (stereo unspecified), the GI50 in the test with K562 was 28.8 µM (inactive); in the test with MOLT-4, 28.6 µM (inactive); in the test on KM12 it was 13.6 µM (inactive); with SK-MEL-5 it was 12.2 µM (inactive); in the test on MDA-N, 15.5 µM (inactive); in the test with RXF 393 it was 6.3 µM (inactive). Further, the GI50 in the test with RPMI-8226 was 17.3 µM (inactive); in the test with Hs-578T, 25.2 µM (inactive); in the test on DU-145, 13.4 µM (inactive); in the test with SF-268, 16.6 µM (inactive); in the test with A498, 16.3 µM (inactive); in the test on SW-620 it was 20.2 µM (inactive). Moreover, the GI50 with TK-10 is 14.3 µM (inactive); in the test with MCF7 it was 13.4 µM (inactive); in the test on SK-MEL-2 it was 15.6 µM (inactive); with CCRF-CEM, 3.01 µM (inactive); with PC-3, 13.5 µM (inactive); in the test on NCI-H460, 15.4 µM (inactive). For the same molecule, in the test with SK-OV-3, the GI50 is 19.2 µM (inactive).

`CCCCn1c(C)c2c(c1C)C(=O)N(CC(O)CN1CCc3ccccc3C1)C2=O` (stereo unspecified): the GI50 in the test with K562 was 47.2 µM (inactive); in the test with MOLT-4, 38.3 µM (inactive); in the test on KM12, 57 µM (inactive); with SK-MEL-5, 31.5 µM (inactive); with MDA-N, 70 µM (inactive); with RXF 393, 67.6 µM (inactive). For the same molecule, the GI50 with RPMI-8226 was 76.9 µM (inactive); in the test on Hs-578T, > 100 µM (inactive); with DU-145, > 100 µM (inactive); with SF-268, > 100 µM (inactive); in the test with A498, 29.8 µM (inactive); in the test with SW-620, > 100 µM (inactive). Further, the GI50 is 67.3 µM (inactive) with TK-10; 33.3 µM (inactive) in the test with MCF7; 0.292 µM (active) in the test on SK-MEL-2; 69.8 µM (inactive) with CCRF-CEM; 56.6 µM (inactive) in the test with PC-3; 86.7 µM (inactive) in the test on NCI-H460. Further, in the test with SK-OV-3, the GI50 was > 100 µM (inactive).

The values above are taken from ChEMBL document CHEMBL1201862, “PubChem BioAssay data set” (2004).
